The text below walks through data of patent EP1892243A1, “Polymorphic forms of ziprasidone sulphate salts” (KRKA, tovarna zdravil, d.d., Novo mesto, priority 2006, dated 2008).

Structures can show the parent of a compound that is named as a salt.

A short description of data set [1]: Water-sorption analysis. Format: physicochemical. The note with it: for release of crystal water: at 0 % RH, nitrogen flow 200 ml/min; for release of crystal water / water sorption started at: 25°C; for water sorption started at: cycles from 0 % RH to 95 % RH. As to the method:
An amount of 20 mg of zipasidone hydrogensulphate dihydrate was exposed to a water-sorption analysis (Surface Measurement Systems Ltd., London, UK; two complete 11-step circles from 0 % RH to 95 % RH at the temperature 25°C and nitrogen flow rate 200 ml/min; minimal retention time at the step when dm/dt < 0.002% is 10 minutes and maximal 360 minutes) and compared to the same test of Ziprasidone hydrochloride monohydrate.

Data set [2] in a line: Particle size by laser light scattering. The note with it: drug substance used in the compositions of Example 12. Format: physicochemical. As to the method:
The average particle size is determined by laser light scattering using a Malvern-Mastersizer Apparatus MS 2000. The particles to be subjected to the particle size measurement are first suspended in isoparafinic oil (Isopar®) and then subjected to a size determination in a Malvern Mastersizer MS 2000 instrument. Usually, 100-800 mg of substance is dispersed in 5-8 ml of […]. According to manufacturer's information, the Malvern Mastersizers allow for a measurement of particle size distributions in the range of 20 nm to 2000 µm, with a precision of better than 0.5%. Particle sizes are determined by measuring the angular distribution of laser light scattered by a homogeneous suspension of particles. The size distribution is determined from the light scattering data using the theory of light scattering developed by Gustav Mie.

The conditions of data set [3]: 2 weeks.

On to `O=C1Cc2cc(CCN3CCN(c4nsc5ccccc45)CC3)c(Cl)cc2N1` [Ziprasidone hydrochloride monohydrate, reference compound], for which, in data set [1], the “release of crystal water” value is recorded as “release crystal water” and the “water sorption started at” value was 30 % RH.

In data set [2], `O.O.O=C1Cc2cc(CCN3CCN(c4nsc5ccccc45)CC3)c(Cl)cc2N1.O=S(=O)(O)O` [Ziprasidone hydrogensulphate dihydrate, 5-[2-[4-(1,2-benzisothiazol-3-yl)-1-piperazinyl]ethyl]-6-chloro-1,3-dihydro-2H-indol-2-one hydrogensulphate dihydrate] gave a Particle size of 26 µm. For the same compound, the “HPLC purity of Ziprasidone after two-week stability test” value in data set [3] is reported as 99.7%. In data set [1], the “release of crystal water” value is “does not release crystal water” and the “water sorption started at” value was determined as 50 % RH. In addition, in data set [1] (compared with Ziprasidone hydrochloride salt), the stability to hydratation entry is listed as “more stable to hydratation”.
